# From patent US11254700B2, “GSK-3β inhibitors and use thereof in methods of treatment” (UNIVERSITY OF HAWAII, priority 2017, dated 2022)
# “Also recorded” adds a separate entry of the source.
# Experiments:
# Format in all cases: in vivo, mouse
# [1] = test system: Aβ plaques and Iba1-positive microglia; assay: Immunofluorescence labeling (Aβ+IBA1); settings: APP/PS1 mice
# Procedure: The backgrounds of all mice (APP/PS1 dual transgenic mice and wild-type mice with littermates) were C57/B6. Transgenic mice were randomly divided into three groups (n=20 for each group), and wild-type mice were used as controls (n=20). The control group and one group of transgenic mice (model group) were given sterilized ultrapure water, and the other two groups of transgenic mice received low- and high-dose Isoorientin (20 and 50 mg/kg, respectively) via intragastric administration for 60 days. Throughout the study-period, animals were housed in a controlled environment (temperature, 22° C.; humidity, 50-60%, 12-hour light/12-hour dark schedules), with free access to rodent chow and water. After a Morris water maze test, mice were perfused with cold phosphate-buffered saline (PBS), brain tissues were dissected and kept frozen at −80° C. until further analysis. […] Double-labelling procedures were performed to determine the relationship between Iba1-positive and Aβ-positive plaques. […] Sections were then blocked with 5% BSA in 0.01% TRITON X-100 in TBS (TBST) for 1 hour at room temperature. […] Representative images were obtained by fluorescence microscope (Leica).
# [2] = test system: IgG anti-Aβ42; assay: Anti-Aβ immunoglobulin (IgG) in serum by ELISA; settings: APP/PS1 mice, 60-day intragastric, vs model group
# Procedure: The backgrounds of all mice (APP/PS1 dual transgenic mice and wild-type mice with littermates) were C57/B6. Transgenic mice were randomly divided into three groups (n=20 for each group), and wild-type mice were used as controls (n=20). The control group and one group of transgenic mice (model group) were given sterilized ultrapure water, and the other two groups of transgenic mice received low- and high-dose Isoorientin (20 and 50 mg/kg, respectively) via intragastric administration for 60 days. Throughout the study-period, animals were housed in a controlled environment (temperature, 22° C.; humidity, 50-60%, 12-hour light/12-hour dark schedules), with free access to rodent chow and water. After a Morris water maze test, mice were perfused with cold phosphate-buffered saline (PBS), brain tissues were dissected and kept frozen at −80° C. until further analysis. […] Blood was collected from mice. […] The anti-Aβ immunoglobulin (IgG) was measured using an enzyme-linked immunosorbent assay (ELISA) kit according to the manufacturer's protocol (see also, Song, et al. (2017) PLoS One 12(1):e0169509). […] The optical densities at 450 nm were analyzed using a microreader (TECAN, Switzerland) and linear regression was confirmed by ab126468, polyclonal anti-amyloid fibril antibody, as positive internal control. […]
# [3] = test system: APP/PS1 transgenic mice; assay: Morris water maze test
# Procedure: The backgrounds of all mice (APP/PS1 dual transgenic mice and wild-type mice with littermates) were C57/B6. Transgenic mice were randomly divided into three groups (n=20 for each group), and wild-type mice were used as controls (n=20). […] Throughout the study-period, animals were housed in a controlled environment (temperature, 22° C.; humidity, 50-60%, 12-hour light/12-hour dark schedules), with free access to rodent chow and water. After a Morris water maze test, mice were perfused with cold phosphate-buffered saline (PBS), brain tissues were dissected and kept frozen at −80° C. until further analysis. […] Isoorientin was dissolved in sterilized, ultrapure water, sonicated for 20 minutes at a concentration of 5 mg/ml and 2.5 mg/ml, and stored at 4° C. Isoorientin was administered by oral gavage. The required amount of solution was returned to room temperature before intragastric administration. […] The maze was composed of a circular pool (120 cm in diameter) filled with water (22±2° C.) to a height of 30 cm. […] Mice were given day of adaptive training followed by trials on six consecutive days. Each trial started by gently placing the mouse into the water with its head toward the pool wall of any of the three quadrants without the platform. If an animal found the platform within 60 seconds, it was left on the platform for 20 seconds. […] On the last day of Morris water maze test, the platform was removed and the number of times that the mice crossed the location of the original platform was quantified. Between trials, all mice were placed back in their home cages using a spoon-net to avoid direct contact with the experimenter. All trials were tracked automatically by a digital tracking system (Feidi Biological Technology) assessing path length, swimming speed, and latency to escape from the water.
smiles,measurement,setting,value
"O=c1cc(-c2ccc(O)c(O)c2)oc2cc(O)c([C@@H]3O[C@H](CO)[C@@H](O)[C@H](O)[C@H]3O)c(O)c12 [Compound 1, isoorientin]",Aβ plaques in cortex and hippocampus,[1],reduced
same,activated aggregated Iba1-positive cells around plaques,[1],also reduced
same,IgG anti-Aβ42 in serum,[2],decreased; also recorded: reduced
same,platform cross frequencies,"[3]; all doses, vs untreated APP/PS1",significantly increased
same,escape latency,"[3]; intragastric, 60 days, all doses, vs untreated APP/PS1",significantly reduced the escape latency
same,cognitive deficit,"[3]; oral, 25-mg/kg",significant alleviation of cognitive deficit
